Reference: patent publication US5362738A, “Tricyclic pyridone derivatives” (Hoffmann-La Roche Inc., priority 1990, dated 1994)

Legend:
[1] = system: spasmodic seizures caused by pentetrazole; test: antipentetrazole test (oral, mice); format: in vivo; settings: Mus musculus, 0.5 h, p.o., 120 mg/kg pentetrazole i.p. 30 minutes later, 10 animals per dosage, Probit method, dosage protecting 50% of animals
Experimental: As mentioned above, the compounds of formula I have valuable pharmacological properties. In particular, they display pronounced muscle relaxant, sedative-hypnotic, anticonvulsive and/or anxiolytic properties and have a low toxicity.
(§1) In this animal experiment the compound under investigation is administered orally to mice and 30 minutes later there are administered intraperitoneally 120 mg/kg of pentetrazole, which causes emprosthotonus and tonic stretchings of the fore and/or hind limbs in unprotected animals 1-4 minutes after the injection. 10 experimental animals are used per dosage of test substance. After counting the protected experimental animals the ED50 is determined according to the Probit method. The ED50 is that dosage which protects 50% of the experimental animals from the spasmodic seizures caused by pentetrazole. The results which have been obtained with representative members of the class of compound defined by formula I in the experiment described previously are compiled in the following Table. Moreover, the Table contains data concerning the acute toxicity (LD50) of some of these compounds in mg/kg in the case of single oral administration to mice.

[2] = acute toxicity (LD50), single oral administration to mice; settings: mouse, in vivo, p.o.
Experimental: as §1

SMILES | ED50 [1] | LD50 [2]
COC1CN(C(=O)c2cc(-c3ccccc3)c(=O)n3c2-c2c(Cl)cccc2C3)C1 [H, 3-MeO-azetidino, --CCl=CH--CH=CH--, 1-[(10-chloro-4,6-dihydro-4-oxo-3-phenylpyrido[2,1-a]isoindol-1-yl)carbonyl]-3-methoxyazetidine] | 2.2 mg/kg | –
COC1CN(C(=O)c2cc(-c3ccccc3)c(=O)n3c2-c2ccccc2C3)C1 [H, 3-MeO-azetidino, --CH=CH--CH=CH--, 1-[(4,6-dihydro-4-oxo-3-phenylpyrido[2,1-a]isoindol-1-yl)carbon-yl]-3-methoxyazetidine] | 0.39 mg/kg | –
COC1CN(C(=O)c2cc(-c3ccccc3)c(=O)n3c2-c2sccc2C3)C1 [H, 3-MeO-azetidino, --S--CH=CH--, 1-[(4,6-dihydro-6-oxo-7-phenylthieno[2',3':3,4]pyrrolo[1,2-a]pyridin-9-yl)-carbonyl]-3-methoxyazetidine] | 2.1 mg/kg | 2500 mg/kg
CO[C@H]1CCN(C(=O)c2cc(-c3ccccc3)c(=O)n3c2-c2sccc2C3)C1 [H, 3-MeO-pyrrolidino, --S--CH=CH--, (S)-1-[(4,6-dihydro-6-oxo-7-phenylthieno[2',3':3,4]pyrrolo[1,2-a]-pyridin-9-yl)carbonyl]-3-methoxypyrrolidine] | 1.7 mg/kg | 375 mg/kg
CN1CCN(C(=O)c2cc(-c3ccccc3)c(=O)n3c2-c2ccccc2C3)CC1.Cl [H, 4-Me-piperazino, --CH=CH--CH=CH--, 1-[(4,6-dihydro-4-oxo-3-phenylpyrido[2,1-a]isoindol-1-yl)carbonyl]-4-methyl-piperazine hydrochloride] | 5.7 mg/kg | 312 mg/kg
COC[C@H]1CCCN1C(=O)c1cc(-c2ccccc2)c(=O)n2c1-c1ccccc1C2 [H, (R)-2-MeOCH2 --Py--, --CH=CH--CH=CH--, (R)-1-[[4,6-dihydro-4-oxo-3-phenylpyrido[2,1-a]isoindol-1-yl]carbonyl]-2-(methoxymethyl)pyrrolidine] | 2.3 mg/kg | 1500 mg/kg
COC[C@H]1CCCN1C(=O)c1cc(-c2ccccc2)c(=O)n2c1-c1sccc1C2 [H, (R)-2-MeOCH2 --Py--, --S--CH=CH--, (R)-1-[(4,6-dihydro-6-oxo-7-phenylthieno[2',3':3,4]pyrrolo[1,2-a]pyridin-9-yl)carbonyl]-2-(methoxymethyl)pyrrolidine] | 0.76 mg/kg | 625 mg/kg
CN(C)C(=O)c1cc(-c2ccccc2)c(=O)n2c1-c1ccccc1C2 [H, Me2 N--, --CH=CH--CH=CH--, N,N-dimethyl-4,6-dihydro-4-oxo-3-phenylpyrido[2,1-a]isoindole-1-carboxamide] | 0.73 mg/kg | 375 mg/kg
O=C(c1cc(-c2ccccc2)c(=O)n2c1-c1sccc1C2)N1CCOCC1 [H, Morpholino, --S--CH=CH--, 4-[(4,6-dihydro-6-oxo-7-phenylthieno[2',3':3,4]pyrrolo[1,2-a]pyridin-9-yl)carbonyl]-morpholine] | 1.32 mg/kg | 5000 mg/kg
